Molecular target: T1, sensory rhodopsin II (NpSRII) (Natronomonas pharaonis, UniProt P42196)
T1 construct: gene sop2; His-tagged, expressed in E. coli BL21star from pET27a, Ni-NTA and size exclusion; crystallised in LCP
T1 sequence (P42196 1-239): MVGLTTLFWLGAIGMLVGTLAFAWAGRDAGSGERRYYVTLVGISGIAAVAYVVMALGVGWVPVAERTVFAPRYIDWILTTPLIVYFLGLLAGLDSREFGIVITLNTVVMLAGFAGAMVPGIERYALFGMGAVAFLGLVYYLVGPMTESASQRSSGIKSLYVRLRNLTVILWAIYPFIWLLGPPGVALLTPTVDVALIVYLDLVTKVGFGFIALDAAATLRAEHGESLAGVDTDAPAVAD
Assay: serial synchrotron X-ray crystallography
Format: binding
Conditions: covalent, room temperature

| Structure (SMILES) | serial synchrotron X-ray crystallography (Lys205, photoisomerized in situ from all-trans retinal, M-state at partial occupancy, continuous 488 nm illumination) | serial synchrotron X-ray crystallography (protonated Schiff base to Lys205, dark resting state, LCP microcrystals) |
| --- | --- | --- |
| CC1=C(/C=C/C(C)=C/C=C/C(C)=C\C=O)C(C)(C)CCC1 [13-cis retinal] | the population of the M-state was given a 13-cis retinal | – |
| CC1=C(/C=C/C(C)=C/C=C/C(C)=C/C=O)C(C)(C)CCC1 [all-trans retinal] | – | the resting and O-state populations were refined with an all-trans retinal |

— publication PMC11992208, “Structural basis for the prolonged photocycle of sensory rhodopsin II revealed by serial synchrotron crystallography” (Nature Communications, 2025)
